The source of these data is patent US8802596B2, “Multi-functional ionic liquid compositions for overcoming polymorphism and imparting improved properties for active pharmaceutical, biological, nutritional, and energetic ingredients” (Board of Trustees of the University of Alabama, priority 2005, dated 2014).

Entries after “also recorded” stand apart in the source; their conditions may differ.

The subject of data set [1] is S. aureus, E. faecium, E. coli, C. albicans. The data set is described as follows: Average value of MIC / MBC over the four cultures. The class given is cell-based. Particulars: for MBC Average value / MIC Average value: average over S. aureus, E. faecium, E. coli, C. albicans; for Biological activity compared with the starting quaternary ammonium chloride (average MIC and MBC): in words, refers to Tables 3 and 4. How it is done: (§1) In the biological activity measurements (tests) following bacteria were used: Staphylococcus aureus ATCC 6538, Enterococcus faecium ATCC 49474, Escherichia coli ATCC 25922 and fungi Candida albicans ATCC 10231.
(§2) Microbiological activity tests were performed using dissolution method. Determinations were performed on liquid base (background): Mueller-Hinton for bacteria and Sabouraud for fungi. Starting solution had the concentration of 1 g/cm^3. From this solution, all other solutions (lower concentrations) were prepared. To those solutions, 0.1 cm^3 of the suspensions of standard microorganisms at a concentration of 10^6 cfu cm^3 were added. The samples with bacteria were incubated for 24 h at the temperature of 37° C., and with fungi there were incubated for 48 h at the temperature of 22° C. After incubation time the MIC, Minimal Inhibitory Concentration, minimal concentration of the investigated compound at which the growth of the microorganisms is stopped (visually), was specified (recorded) for every sample. To define the MBC, Minimal Bactericidal Concentration, additionally to each solution the 10^−6 cm^3 of the inactivator was added on the base (background) (0.3% lecithin, 3% polysorbate 80 and 0.1% L-cysteine). The samples with bacteria were incubated for 48 h in the temperature of 37° C. The fungi samples were incubated for 5 days at the temperature of 22° C. MBC values were defined (specified) as the concentration at which the level of the reduction of the microorganisms was not lower than 99.99%.

Data set [2] deals with Staphylococcus aureus ATCC 6538. The data set is described as follows: Microbiological activity test (dilution method), MIC and MBC. The data set is classed as cell-based. How it is done: as §1, §2
Data set [3] has as its system Candida albicans ATCC 10231. The data set is described as above. The class given is cell-based. How it is done: as §1, §2
The subject of data set [4] is Enterococcus faecium ATCC 49474. The data set is described as above. The data set is classed as cell-based. How it is done: as §1, §2
For data set [5], the system named is Escherichia coli ATCC 25922. The data set is described as above. The data set is classed as cell-based. How it is done:
as §1, §2

Data set [6] can be described thus: Thermal stability (thermalgravimetric analysis, TGA). The class given is physicochemical. The note with it: for Tonset(5%) - onset temperature for 5% of the decomposition / Td - temperature of total decomposition / Tonset - onset temperature of the decomposition: Table 2, no unit in table (temperature is in ° C.); for Tonset / Tonset5%: TGA.
The conditions of data set [7]: background statement, in words; cited from earlier work.
The subject of a further data set is proteins in the body. Particulars: cited from earlier work.
The conditions of data set [8]: in words.
The next data set has as its system Swiss-Webster male mice. Particulars: tail dipped 60 seconds in DMSO solution, 1 mM and 100 mM; 47.5° C. water bath; 15, 30, 60, 120 minutes; versus lidocaine hydrochloride.
[9] abbreviates: S. aureus, incubated 24 h at 37° C., Mueller-Hinton.
[10] abbreviates: S. aureus, reduction not lower than 99.99%, 48 h at 37° C.
The mark [11] stands for this setting: C. albicans, incubated 48 h at 22° C., Sabouraud.
Setting [12] is: C. albicans, reduction not lower than 99.99%, 5 days at 22° C.
The mark [13] stands for this setting: E. faecium, incubated 24 h at 37° C., Mueller-Hinton.
[14] abbreviates: E. faecium, reduction not lower than 99.99%, 48 h at 37° C.
[15] abbreviates: E. coli, incubated 24 h at 37° C., Mueller-Hinton.
Where [16] appears, read: E. coli, reduction not lower than 99.99%, 48 h at 37° C.

Method for Swiss-Webster male mice: The rat tail flick test is used to determine the local anesthetic ability of lidocaine docusate compared with lidocaine hydrochloride. The rat is immobilized in a restraining sock, so that the tail is only exposed. The tail is dipped into hot water and the number of times the rat flicks its tail is recorded. When the anesthetic is applied, the rat's tail should be numb therefore it will not feel the hot water and the number of tail flicks should decrease.
For this test Swiss-Webster male mice were used. They were habituated in a restraining sock 3 times during a 10 day period. A baseline tail flick was determined for each rat in 47.5° C. water bath. […] The number of tail flicks was determined at 15, 30, 60, and 120 minutes in the 47.5° C. water bath. […] Using the following equation, one can determine the % MPE at each time for the two compounds in question. % MPE=(TFi−BL)/(10−BL)*100 • TFi=latency to withdraw tail from hot water • BL=baseline withdrawal time without the drug

In the case of `CC1=CC(=O)[N-]S(=O)(=O)O1.CCCCCCCCCCCC[N+](C)(C)Cc1ccccc1` [[BA][Ace], benzalkonium acesulfamate], the “MBC Average value” in data set [1] was found to be 54.7 ppm. In data set [1], the “MIC Average value” is given as 14.8 ppm. For the same compound, in data set [1], the “Biological activity compared with the starting quaternary ammonium chloride (average MIC and MBC)” value is “high activity of the salt, slightly lower than that of the starting benzalkonium chloride”. In addition, the MIC in data set [2] (setting [9]) is reported as 4 ppm; in data set [3] (setting [11]), 16 ppm; in data set [4] (setting [13]), 8 ppm; in data set [5] (setting [15]), 31.2 ppm. In addition, the MBC is listed as 31.2 ppm in data set [2] (setting [10]), 31.2 ppm in [3] (setting [12]), 31.2 ppm in [4] (setting [14]) and 125 ppm in data set [5] (setting [16]). Further, the “Tonset(5%) - onset temperature for 5% of the decomposition” value (“Tonset(5%) - onset temperature” for short) in data set [6] is given as 186.
For the compound `CCCCCCCCCCCC[N+](C)(C)Cc1ccccc1.O=C1[N-]S(=O)(=O)c2ccccc21` [[BA][Sac], benzalkonium saccharinate], the “MBC Average value” in [1] was 35.2 ppm. For the same compound, the “MIC Average value” in [1] is 11 ppm. Further, the MIC amounted to 4 ppm in data set [2] (setting [9]), 16 ppm in data set [3] (setting [11]), 8 ppm in [4] (setting [13]) and 16 ppm in data set [5] (setting [15]). For the same compound, the MBC in data set [2] (setting [10]) is 31.2 ppm; in data set [3] (setting [12]), 31.2 ppm; in data set [4] (setting [14]) it was 16 ppm; in data set [5] (setting [16]), 62.5 ppm. Besides, the “Td - temperature of total decomposition” value in data set [6] amounted to 227. For the same compound, the “Tonset - onset temperature of the decomposition” value (from here on “Tonset - onset temperature”) in [6] worked out at 206. The “Tonset(5%) - onset temperature” value in data set [6] is recorded as 176.
In data set [6], “didecyldimethylammonium N-[4-[[(2-amino-1,4-dihydro-4-oxo-6-pteridinyl)methyl]amino]benzoyl]-L-glutamate” gave a Tonset of 201 °C and a Tonset5% of 153 °C.
For the compound `CCCCCCCCCC[N+](C)(C)CCCCCCCCCC.O=C1[N-]S(=O)(=O)c2ccccc21` [[DDA][Sac], Didecyldimethylammonium Saccharinate], in data set [1], the “MBC Average value” is given as 27.6 ppm. In addition, in data set [1], the “MIC Average value” was 11 ppm. Moreover, in [1], the “Biological activity compared with the starting quaternary ammonium chloride (average MIC and MBC)” value is “high in comparison with starting material”. Further, the MIC in data set [2] (setting [9]) is listed as 4 ppm; in data set [3] (setting [11]), 16 ppm; in [4] (setting [13]), 8 ppm; in data set [5] (setting [15]), 16 ppm. In addition, the MBC in data set [2] (setting [10]) was 62.5 ppm; in [3] (setting [12]), 16 ppm; in data set [4] (setting [14]) it was 16 ppm; in [5] (setting [16]) it was 16 ppm. Moreover, the “Td - temperature of total decomposition” value in [6] came out at 221. Further, the “Tonset - onset temperature” value in data set [6] came out at 211. The “Tonset(5%) - onset temperature” value in data set [6] is 184.
In data set [6], `CC([O-])=NS(=O)(=O)c1ccc(N)cc1.CCCCCCCCCC[N+](C)(C)CCCCCCCCCC` [Didecyldimethylammonium Sulfacetamide, didecyldimethylammonium (DDA) sulfacetamide] came in with a Tonset of 200.2 °C and a Tonset5% of 183.3 °C.
Take `CCCCCCCOC[N+](C)(C)CCOC(C)=O.O=C([O-])c1ccccc1` [(2-acetoxyethyl)heptyloxymethyldimethylammonium benzoate]: the Tonset in [6] was 120 °C.
`CCCCCCCCCCCOC[N+](C)(C)CCO.O=C([O-])c1ccccc1` [(2-hydroxyethyl)dimethylundecyloxymethylammonium benzoate]: in data set [6], the Tonset was determined as 127 °C.
`CCCCCCCCCC[N+](C)(C)CCCCCCCCCC.CCCCCCOC(=O)CC(C(=O)OCCCCCC)S(=O)(=O)O` (stereo not drawn) [Didecyldimethylammonium Colawet MA-80]: in data set [6], the Tonset stood at 226 °C and the Tonset5% came to 218 °C.
The matching figures for `CC(=O)NS(=O)(=O)c1ccc(N)cc1.CCCCCCCCCCCCCCCC[n+]1ccccc1` [Hexadecylpyridinium Sulfacetamide, hexadecylpyridinium sulfacetamide]: 219 °C and 211 °C.
Turning to `CCC(C)n1ncn(-c2ccc(N3CCN(c4ccc(OCC5COC(Cn6cncn6)(c6ccc(Cl)cc6Cl)O5)cc4)CC3)cc2)c1=O` (stereo not drawn) [Itraconazole, itraconazole], in data set [7], the “Solubility in organic solvents” value is recorded as “slightly soluble in alcohol; also recorded: freely soluble in dichloromethane” and the Solubility in water result is “insoluble in water”. Besides, in the data set with proteins in the body, the “Drug bound to proteins in the body” value is 99.8%.
In data set [6], `CCCCCCCCCC[N+](C)(C)CCCCCCCCCC.CCN1CCN(C(=O)NC(C(=O)NC2C(=O)N3C2SC(C)(C)C3C(=O)[O-])c2ccccc2)C(=O)C1=O` (stereo not drawn) [Didecyldimethylammonium Piperacillin] came in with a Tonset of 205 °C and a Tonset5% of 181 °C.
The matching figures for `CCCCCCCCCCCCCCCC[n+]1ccccc1.CCCCCCOC(=O)CC(C(=O)OCCCCCC)S(=O)(=O)[O-]` (stereo not drawn) [Hexadecylpyridinium Colawet MA-80]: 262 °C and 248 °C.
For the compound `CCCCCCCCCC[N+](C)(C)CCCCCCCCCC.[Cl-]` [DDAC, didecyldimethylammonium chloride, reference compound], the MBC in data set [1] (read-out: MBC Average value) was determined as 27.4 µg/mL; in data set [2] (Staphylococcus aureus, ATCC6538, 48 h), 31.2 µg/mL; in data set [3] (Candida albicans, ATCC10231, 120 h) it was 16 µg/mL; in data set [4] (Enterococcus faecium, ATCC49474, 48 h) it was 31.2 µg/mL; in data set [5] (Escherichia coli, ATCC25922, 48 h), 31.2 µg/mL. The MIC in [1] (read-out: MIC Average value) came to 5.5 µg/mL; in data set [2] (Staphylococcus aureus, ATCC6538, 24 h) it was 2 µg/mL; in [3] (Candida albicans, ATCC10231, 48 h), 8 µg/mL; in data set [4] (Enterococcus faecium, ATCC49474, 24 h), 4 µg/mL; in data set [5] (Escherichia coli, ATCC25922, 24 h), 8 µg/mL.
Regarding `CCCCCCCCCC[N+](C)(C)CCCCCCCCCC.Cc1ccc(S(=O)(=O)[O-])cc1` [didecyldimethylammonium p-toluenesulfonate], in data set [8], the “Solubility / miscibility in water” value was “insoluble in water and hexane”; the “Solubility in organic solvents / other media” value was “soluble in chloroform, acetone, DMSO”.
As for `CCCCC(CC)COC(=O)CC(C(=O)OCC(CC)CCCC)S(=O)(=O)O.CCN(CC)CC(=O)Nc1c(C)cccc1C` (stereo not drawn) [lidocaine docusate], in the data set on Swiss-Webster male mice, the “Anesthetic ability (tail flick, % MPE graphs)” value was “higher and longer anesthetic ability than lidocaine hydrochloride”.
For `CC1=CC([O-])=NS(=O)(=O)O1.CCCCCCCCCC[N+](C)(C)CCCCCCCCCC` [[DDA][Ace], didecyldimethylammonium acesulfamate], the “MBC Average value” in data set [1] turned out to be 31.4 ppm. Also, in [1], the “MIC Average value” is reported as 12 ppm. Besides, in data set [1], the “Biological activity compared with the starting quaternary ammonium chloride (average MIC and MBC)” value is given as “only slight difference in the biological activity”. Moreover, the MIC in data set [2] (setting [9]) was determined as 8 ppm; in data set [3] (setting [11]), 16 ppm; in [4] (setting [13]), 8 ppm; in data set [5] (setting [15]), 16 ppm. Also, the MBC in data set [2] (setting [10]) is on record as 16 ppm; in data set [3] (setting [12]), 16 ppm; in data set [4] (setting [14]), 31.2 ppm; in [5] (setting [16]), 62.5 ppm. Also, in [6], the “Td - temperature of total decomposition” value came to 245. Also, the “Tonset - onset temperature” value in data set [6] was 201. The “Tonset(5%) - onset temperature” value in data set [6] amounted to 182.
In turn, `CCCCCCCCCCCCOC[N+](C)(C)CCOC(C)=O.O=C([O-])c1ccccc1` [(2-acetoxyethyl)dodecyloxymethyldimethylammonium Benzoate] showed a Tonset in [6] of 122 °C.
